Results on four molecules are retold here after patent US20230265151A1, “GIP/GLP1 CO-AGONIST COMPOUNDS” (priority 2020, published 2023).

The structures appear in SMILES notation. Like-named read-outs stand apart in the source and are kept apart here. *1 amine or outer side, *2 acyl side, *3 side chain or, on linkers, in order; H or OH if unused. Where a SMILES comes first, the peptide text is derived from it. Side-chain parts run from the residue outwards. [ ]: non-standard residue; d: D form. The star is where a group is joined. αMePhe(2-F) = C[C@](N)(Cc1ccccc1F)C(=O)O; γGlu = O=C(O)[C@H](CCC(=O)[*:2])N[*:1]; C14 diacid = O=C(O)CCCCCCCCCCCCC(=O)*; αMeY = C[C@](N)(Cc1ccc(O)cc1)C(=O)O; 4Pal = N[C@@H](Cc1ccncc1)C(=O)O; αMeL = CC(C)C[C@](C)(N)C(=O)O; Orn = NCCC[C@H](N)C(=O)O; AEEA = NCCOCCOCC(=O)O; Aib = CC(C)(N)C(=O)O Some results are limits rather than exact numbers.

What all share (assay type): cell-based
The target of one assay is T1, hGCGR (Homo sapiens, UniProt P47871).
T1 construct: expressed in transfected cells
Briefly: Functional cAMP formation (HTRF) in HEK-293 clonal cells expressing hGCGR, 0.1% bovine casein, without or with 1.0% human serum albumin. The essentials:
(§1)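 Cells were stimulated with peptide for 30 min at 37° C, then lysed in buffer carrying cAMP-d2 and anti-cAMP Eu3+-cryptate for a competitive HTRF read after at least 60 min at room temperature. The 665/620 nm ratio was converted to nM cAMP against a standard curve.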
On the technique in general: Changes in cAMP serve as a functional read-out for many G protein-coupled receptors.

For the next assay, the target named is hGLP-1R (Homo sapiens, UniProt P43220). Briefly: Functional cAMP formation (HTRF) in HEK-293 clonal cells expressing hGLP-1R, 0.1% bovine casein, without or with 1.0% human serum albumin. Conditions: for EC50: geometric mean. More on the design: expressed in transfected cells. The essentials:
as §1

The target of a further assay is T2, hGIPR (Homo sapiens, UniProt P48546).
T2 construct: expressed in transfected cells
T2 sequence (P48546 22-466): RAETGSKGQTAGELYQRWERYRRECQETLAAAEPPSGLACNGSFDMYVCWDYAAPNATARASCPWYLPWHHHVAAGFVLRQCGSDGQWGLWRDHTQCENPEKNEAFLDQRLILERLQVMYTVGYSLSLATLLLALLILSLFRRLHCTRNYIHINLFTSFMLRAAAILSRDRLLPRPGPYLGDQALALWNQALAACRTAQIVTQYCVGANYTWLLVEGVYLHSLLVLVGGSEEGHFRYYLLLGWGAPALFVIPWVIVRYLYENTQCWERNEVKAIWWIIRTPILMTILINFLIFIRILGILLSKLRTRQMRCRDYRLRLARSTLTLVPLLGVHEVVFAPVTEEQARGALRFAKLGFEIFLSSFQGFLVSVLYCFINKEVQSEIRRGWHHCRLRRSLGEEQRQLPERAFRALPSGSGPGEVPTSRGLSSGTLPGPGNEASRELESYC
Kind of assay: Functional cAMP formation (HTRF) in HEK-293 clonal cells expressing hGIPR, 0.1% bovine casein, without or with 1.0% human serum albumin. In outline: as §1

Setting [1] is: 0.1% bovine casein and 1.0% human serum albumin, 37° C., geometric mean, read-out: hGCGR EC50, nM (SEM, n).
[2] abbreviates: cAMP, incubated at 37° C., 0.1% bovine casein (no human serum albumin), geometric mean, read-out: hGCGR EC50, nM (SEM, n).
Setting [3] is: HEK293, percent of maximal response to GLP-1(7-36)NH2, 37° C., 0.1% bovine casein, arithmetic mean, read-out: hGLP-1R Emax, % ± SEM.
Setting [4] is: cAMP, incubated at 37° C., 0.1% bovine casein (no human serum albumin), read-out: hGLP-1R EC50, nM (SEM, n).
Setting [5] is: HEK293, 0.1% bovine casein and 1.0% human serum albumin, 37° C., percent of maximal response to GIP(1-42)NH2, read-out: hGIPR Emax, % ± SEM.
The mark [6] stands for this setting: 0.1% bovine casein and 1.0% human serum albumin, 37° C., read-out: hGLP-1R EC50, nM (SEM, n).

T1 sequence (P47871 26-477): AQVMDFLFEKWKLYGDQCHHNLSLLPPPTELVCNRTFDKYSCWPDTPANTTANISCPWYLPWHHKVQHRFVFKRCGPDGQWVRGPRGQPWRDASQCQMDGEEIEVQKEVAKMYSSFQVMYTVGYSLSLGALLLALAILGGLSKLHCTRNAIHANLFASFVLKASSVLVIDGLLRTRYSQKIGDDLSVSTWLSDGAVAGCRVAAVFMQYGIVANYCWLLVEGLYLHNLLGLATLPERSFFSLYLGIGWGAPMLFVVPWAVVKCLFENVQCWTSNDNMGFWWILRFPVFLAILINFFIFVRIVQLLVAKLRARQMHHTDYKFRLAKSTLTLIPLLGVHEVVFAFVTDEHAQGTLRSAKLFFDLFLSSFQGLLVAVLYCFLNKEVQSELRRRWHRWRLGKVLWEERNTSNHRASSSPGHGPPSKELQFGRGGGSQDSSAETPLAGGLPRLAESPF
Chain of hGLP-1R (P43220 24-463): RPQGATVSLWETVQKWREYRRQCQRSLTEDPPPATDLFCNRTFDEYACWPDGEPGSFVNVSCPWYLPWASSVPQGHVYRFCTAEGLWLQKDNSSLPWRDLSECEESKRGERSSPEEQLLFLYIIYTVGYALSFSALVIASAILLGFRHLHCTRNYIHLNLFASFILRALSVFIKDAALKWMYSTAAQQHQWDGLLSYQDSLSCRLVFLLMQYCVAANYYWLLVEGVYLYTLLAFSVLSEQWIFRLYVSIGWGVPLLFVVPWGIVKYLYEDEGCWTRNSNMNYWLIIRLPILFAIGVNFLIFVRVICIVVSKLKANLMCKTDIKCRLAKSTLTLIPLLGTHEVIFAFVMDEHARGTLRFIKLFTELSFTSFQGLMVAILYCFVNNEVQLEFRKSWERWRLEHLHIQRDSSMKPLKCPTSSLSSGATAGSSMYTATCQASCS

For `CC[C@H](C)[C@H](NC(=O)CNC(=O)[C@H](Cc1ccncc1)NC(=O)[C@H](CC(=O)O)NC(=O)[C@H](CO)NC(=O)[C@@H](NC(=O)[C@](C)(Cc1ccccc1F)NC(=O)[C@@H](NC(=O)CNC(=O)[C@H](CCC(=O)O)NC(=O)C(C)(C)NC(=O)[C@@H](N)Cc1ccc(O)cc1)[C@@H](C)O)[C@@H](C)O)C(=O)N[C@@](C)(CC(C)C)C(=O)N[C@@H](CC(C)C)C(=O)N[C@@H](CC(=O)O)C(=O)N[C@@H](CCCN)C(=O)N[C@@H](CCCCNC(=O)COCCOCCNC(=O)COCCOCCNC(=O)CC[C@H](NC(=O)CCCCCCCCCCCCC(=O)O)C(=O)O)C(=O)N[C@@H](C)C(=O)N[C@@H](CCC(N)=O)C(=O)NC(C)(C)C(=O)N[C@@H](CCC(=O)O)C(=O)N[C@@H](Cc1ccccc1)C(=O)N[C@H](C(=O)N[C@H](CCC(=O)O)C(=O)N[C@@](C)(Cc1ccc(O)cc1)C(=O)N[C@@H](CC(C)C)C(=O)N[C@H](C(=O)N[C@@H](CCC(=O)O)C(=O)NCC(=O)NCC(=O)N[C@@H](CCCCNC(=O)COCCOCCNC(=O)COCCOCCNC(=O)CC[C@H](NC(=O)CCCCCCCCCCCCC(=O)O)C(=O)O)C(=O)N[C@@H](CO)C(=O)N[C@@H](CO)C(=O)NCC(=O)N[C@@H](C)C(=O)N1CCC[C@H]1C(=O)N1CCC[C@H]1C(=O)N1CCC[C@H]1C(=O)N[C@@H](CO)C(N)=O)[C@@H](C)CC)[C@@H](C)CC` [Example 100] (H-Y[Aib]EGT[αMePhe(2-F)]TSD[4Pal]GI[αMeL]LD[Orn]K([AEEA-AEEA-γGlu-C14 diacid])AQ[Aib]EFI[dE][αMeY]LIEGGK([AEEA-AEEA-γGlu-C14 diacid])SSGAPPPS-NH2; N-terminus assumed), the half-maximal effective concentration (EC50) (as a rule, the concentration giving half of the maximal effect) at hGCGR (setting [1]) was above 9950 nM; on hGCGR (setting [2]), above 9950 nM; on hGLP-1R (setting [4]), 11.4 nM. For the same molecule, the maximal response (Emax) – broadly, the maximal effect, on the per cent scale that the assay sets – at hGLP-1R (HEK293, 0.1% bovine casein and 1.0% human serum albumin, 37° C., percent of maximal response to GLP-1(7-36)NH2, read-out: hGLP-1R Emax, % ± SEM) was 123%; at hGLP-1R (setting [3]), 111%; at hGIPR (setting [5]), 98.3%.
`CC[C@H](C)[C@H](NC(=O)[C@H](CC(C)C)NC(=O)[C@](C)(Cc1ccc(O)cc1)NC(=O)[C@@H](CCC(=O)O)NC(=O)[C@@H](NC(=O)[C@H](Cc1ccccc1)NC(=O)[C@H](CCC(=O)O)NC(=O)C(C)(C)NC(=O)[C@H](CCC(N)=O)NC(=O)[C@H](C)NC(=O)[C@H](CCCCNC(=O)COCCOCCNC(=O)COCCOCCNC(=O)CC[C@H](NC(=O)CCCCCCCCCCCCC(=O)O)C(=O)O)NC(=O)[C@H](CCCN)NC(=O)[C@H](CC(=O)O)NC(=O)[C@H](CC(C)C)NC(=O)[C@](C)(CC(C)C)NC(=O)[C@@H](NC(=O)[C@H](CO)NC(=O)[C@H](Cc1ccncc1)NC(=O)[C@H](CC(=O)O)NC(=O)[C@H](CO)NC(=O)[C@@H](NC(=O)[C@](C)(Cc1ccccc1F)NC(=O)[C@@H](NC(=O)CNC(=O)[C@H](CCC(=O)O)NC(=O)C(C)(C)NC(=O)[C@@H](N)Cc1ccc(O)cc1)[C@@H](C)O)[C@@H](C)O)[C@@H](C)CC)[C@@H](C)CC)C(=O)N[C@@H](CCC(=O)O)C(=O)NCC(=O)NCC(=O)N[C@@H](CCCCNC(=O)COCCOCCNC(=O)COCCOCCNC(=O)CC[C@H](NC(=O)CCCCCCCCCCCCC(=O)O)C(=O)O)C(=O)N[C@@H](CO)C(=O)N[C@@H](CO)C(=O)NCC(=O)N[C@@H](C)C(=O)N1CCC[C@H]1C(=O)N1CCC[C@H]1C(=O)N1CCC[C@H]1C(=O)N[C@@H](CCCN)C(N)=O` [Example 154]: the EC50 on hGCGR (setting [1]) was above 9950 nM; on hGCGR (setting [2]) it was above 9950 nM; on hGLP-1R (setting [6]), 70.5 nM; at hGLP-1R (setting [4]) it was 1.69 nM. In addition, the Emax at hGIPR (setting [5]) is 93 ± 4.96%; on hGIPR (HEK293, percent of maximal response to GIP(1-42)NH2, 37° C., 0.1% bovine casein, arithmetic mean, read-out: hGIPR Emax, % ± SEM), 96.6 ± 3.26%.
As to `CC[C@H](C)[C@H](NC(=O)[C@H](CC(C)C)NC(=O)[C@](C)(Cc1ccc(O)cc1)NC(=O)[C@@H](CCC(=O)O)NC(=O)[C@@H](NC(=O)[C@H](Cc1ccccc1)NC(=O)[C@H](CCC(=O)O)NC(=O)C(C)(C)NC(=O)[C@H](CCC(N)=O)NC(=O)[C@H](C)NC(=O)[C@H](CCCCNC(=O)COCCOCCNC(=O)CC[C@H](NC(=O)CCCCCCCCCOc1ccc(C(=O)O)cc1)C(=O)O)NC(=O)[C@H](CCCN)NC(=O)[C@H](CC(=O)O)NC(=O)[C@H](CC(C)C)NC(=O)[C@](C)(CC(C)C)NC(=O)[C@@H](NC(=O)C(C)(C)NC(=O)[C@H](Cc1ccncc1)NC(=O)[C@H](CC(=O)O)NC(=O)[C@H](CO)NC(=O)[C@@H](NC(=O)[C@](C)(Cc1ccccc1F)NC(=O)[C@@H](NC(=O)CNC(=O)[C@H](CCC(=O)O)NC(=O)C(C)(C)NC(=O)[C@@H](N)Cc1ccc(O)cc1)[C@@H](C)O)[C@@H](C)O)[C@@H](C)CC)[C@@H](C)CC)C(=O)N[C@@H](CCC(=O)O)C(=O)NCC(=O)NCC(=O)N1CCC[C@H]1C(=O)N[C@@H](CO)C(=O)N[C@@H](CO)C(=O)NCC(=O)N[C@@H](C)C(=O)N1CCC[C@H]1C(=O)N1CCC[C@H]1C(=O)N1CCC[C@H]1C(=O)N[C@@H](CO)C(=O)N[C@@H](CCCCNC(=O)COCCOCCNC(=O)CC[C@H](NC(=O)CCCCCCCCCOc1ccc(C(=O)O)cc1)C(=O)O)C(N)=O` [Example 362], the EC50 at hGCGR (hGCGR EC50, nM (SEM, n), cAMP, 37° C., 0.1% bovine casein (no human serum albumin), geometric mean) is above 10100 nM; at hGCGR (hGCGR EC50, nM (SEM, n), cAMP, 37° C., 0.1% bovine casein and 1.0% human serum albumin, geometric mean (SEM, n)), above 9950 nM; at hGLP-1R (hGLP-1R EC50, nM (SEM, n), cAMP, 37° C., 0.1% bovine casein (no human serum albumin)) it was 0.34 nM; at hGIPR (hGIPR EC50, nM (SEM, n), cAMP, 37° C., 0.1% bovine casein (no human serum albumin), geometric mean), 0.0131 nM. The maximal effect (Emax) came to 109% at hGLP-1R (HEK293, read-out: hGLP-1R Emax, % ± SEM, cAMP, 37° C., 0.1% bovine casein, percent of maximal response to GLP-1(7-36)NH2, arithmetic mean); 86.7% on hGIPR (HEK293, read-out: hGIPR Emax, % ± SEM, cAMP, 37° C., 0.1% bovine casein and 1.0% human serum albumin, percent of maximal response to GIP(1-42)NH2).
For `CCCCCCCCCCCCCCCC(=O)N[C@@H](CCC(=O)NCCOCCOCC(=O)NCCOCCOCC(=O)NCCCC[C@H](NC(=O)[C@H](CCCN)NC(=O)[C@H](CC(=O)O)NC(=O)[C@H](CC(C)C)NC(=O)[C@](C)(CC(C)C)NC(=O)[C@@H](NC(=O)[C@H](CO)NC(=O)[C@H](Cc1ccncc1)NC(=O)[C@H](CC(=O)O)NC(=O)[C@H](CO)NC(=O)[C@@H](NC(=O)[C@](C)(Cc1ccccc1F)NC(=O)[C@@H](NC(=O)CNC(=O)[C@H](CCC(=O)O)NC(=O)C(C)(C)NC(=O)[C@@H](N)Cc1ccc(O)cc1)[C@@H](C)O)[C@@H](C)O)[C@@H](C)CC)C(=O)N[C@@H](C)C(=O)N[C@@H](CCC(N)=O)C(=O)NC(C)(C)C(=O)N[C@@H](CCC(=O)O)C(=O)N[C@@H](Cc1ccccc1)C(=O)N[C@H](C(=O)N[C@H](CCC(=O)O)C(=O)N[C@@H](CCCCNC(=O)COCCOCCNC(=O)COCCOCCNC(=O)CC[C@H](NC(=O)CCCCCCCCCCCCCCC)C(=O)O)C(=O)N[C@@H](CC(C)C)C(=O)N[C@H](C(=O)N[C@@H](CCC(=O)O)C(=O)NCC(=O)NCC(=O)N1CCC[C@H]1C(=O)N[C@@H](CO)C(=O)N[C@@H](CO)C(=O)NCC(=O)N[C@@H](C)C(=O)N1CCC[C@H]1C(=O)N1CCC[C@H]1C(=O)N1CCC[C@H]1C(=O)N[C@@H](CO)C(N)=O)[C@@H](C)CC)[C@@H](C)CC)C(=O)O` [Example 32], the concentration for a half-maximal effect (EC50) at hGCGR (setting [1]) was above 9950 nM; on hGCGR (setting [2]), above 9950 nM; on hGLP-1R (setting [6]) it was 1.73 nM; at hGLP-1R (setting [4]), 0.0063 nM. Also, the maximal response (Emax) on hGLP-1R (setting [3]) worked out at 119%; at hGIPR (setting [5]), 98.2%.
